Laboratory results from patent publication US20250275539A1, “APYRASE INHIBITORS” (Texas Crop Science, Inc., priority 2024, published 2025).
Like-named read-outs stand apart in the source and are kept apart here.

What was measured:
[1] = tested on: Amaranthus retroflexus (pigweed); experiment: Enhancement of herbicide activity: pre-emergence Amaranthus kill with metribuzin; assay type: in vivo; details: for pest or weed control at 100 g/ha: Amaranthus retroflexus; for enhancement of metribuzin herbicidal activity: compound at 100 g/ha with metribuzin, at seven and fourteen days
Procedure: Specifically, Amaranthus retroflexus (pigweed) was treated pre-emergence with metribuzin alone or in combination with an enhancer compound disclosed herein. Fifteen seeds of Amaranthus retroflexus were sown in soil in each pot and then sprayed with a mixture of metribuzin at the appropriate rate shown in Table 5 and the compound of this invention at 100 g/ha using a track sprayer at a water volume of 200 L/hectare. Small amounts of acetone were used to aid solubility. The pots were watered immediately after sowing and treatment and then allowed to stand in a glasshouse. Assessment of kill was made seven and fourteen days after treatment. The test included four replicates for each treatment and the control.

[2] = tested on: Brown Rust (Puccinia recondita) on wheat; experiment: Greenhouse crop test: control of Brown Rust on wheat in combination with commercial fungicides; assay type: in vivo; details: wheat JB Diego, inoculated 24 hours after treatment, evaluated at fourteen days; for Amistar (% control of the disease, compound + fungicide): with Amistar 0.04 L/ha; for Balaya (% control of the disease, compound + fungicide): with Balaya 0.25 L/ha; for Imtrex (% control of the disease, compound + fungicide): with Imtrex 0.45 L/ha; for Proline (% control of the disease, compound + fungicide): with Proline 0.15 L/ha
Procedure: In this method, exemplary compounds were evaluated for their ability to control Brown Rust (Puccinia recondita) on wheat in a controlled greenhouse environment in combination with one of four fungicides, Amistar, Imtrex, Proline or Balaya. In these studies, wheat plants (JB Diego) were used. Seeds were sown in 9 cm diameter pots to a depth of 1 to 2 cm using Petersfield potting compost (75% medium grade peat, 12% screened sterilized loam, 3% medium grade vermiculite, 10% grit (5 mm screened, lime free), 1.5 kg PG mix per m3, lime to pH5.5-6.0 and wetting agent (Vitax Ultrawet 200 ml per m3) and germinated/grown at 23 C under a 16 h day/8 h night light regime. Plants were treated two to three weeks after sowing when they were at the BBCH 11 growth stage ([…]). Wheat plants were inoculated with Puccinia triticina (Brown rust) 24 hours after treatment. A track sprayer was used to treat the plants with the mixture of commercial fungicide and test compound using a water volume of 200 L/ha. Four replicates were used for each combination of fungicide, pathogen and test compound. Each plant was evaluated at fourteen days (once the disease symptoms were fully expressed) for % control of the disease. Appropriate controls were used for all experiments, including an ‘inoculation check’ wherein plants were inoculated with their specific pathogen to assess disease levels. Also, each commercial fungicide was tested on its own as a part of each treatment, this being benchmark against which the experimental compounds were evaluated. […] That is, the present compounds, although not fungicidal by themselves, enhance the activity of fungicides, thus the enhancer compounds work synergistically in combination with fungicides to control disease. • Amistar (0.04 L/ha) • Imtrex (0.45 L/ha) • Proline (0.15 L/ha) • Balaya (0.25 L/ha)

[3] = tested on: apyrase; experiment: Apyrase inhibition assay (screen for apyrase inhibitors, phosphate release read at 630 nm); assay type: biochemical; details: inhibitor conc at 1 mM (10 μl added), 3 mM ATP, pH 6.5, room temperature 1 hr
[4] = 168 h, read-out: Pre-Emergence Amaranthus Kill Percentage, Assessed 7 DAT, Metribuzin rate 50 g/ha
[5] = 168 h, read-out: Pre-Emergence Amaranthus Kill Percentage, Assessed 7 DAT, Metribuzin rate 100 g/ha
[6] = 168 h, read-out: Pre-Emergence Amaranthus Kill Percentage, Assessed 7 DAT, Metribuzin rate 200 g/ha
[7] = 336 h, read-out: Pre-Emergence Amaranthus Kill Percentage, Assessed 14 DAT, Metribuzin rate 50 g/ha
[8] = 336 h, read-out: Pre-Emergence Amaranthus Kill Percentage, Assessed 14 DAT, Metribuzin rate 100 g/ha
[9] = 336 h, read-out: Pre-Emergence Amaranthus Kill Percentage, Assessed 14 DAT, Metribuzin rate 200 g/ha

SMILES | pest or weed control at 100 g/ha [1, 4] | pest or weed control at 100 g/ha [1, 5] | pest or weed control at 100 g/ha [1, 6] | pest or weed control at 100 g/ha [1, 7] | pest or weed control at 100 g/ha [1, 8] | pest or weed control at 100 g/ha [1, 9] | enhancement of metribuzin herbicidal activity [1] | Amistar (% control of the disease, compound + fungicide) [2] | Balaya (% control of the disease, compound + fungicide) [2] | Imtrex (% control of the disease, compound + fungicide) [2] | Proline (% control of the disease, compound + fungicide) [2] | Inhibition [3]
O=C1Cc2cc(NS(=O)(=O)c3ccc(-c4ccccc4)cc3)ccc2N1 [Compound A-8, N-(2-oxoindolin-5-yl)-[1,1′-biphenyl]-4-sulfonamide] | 12.8% | 28.6% | 100% | 18.8% | 35.7% | 100% | significant enhancement | 72.9% | 77.2% | 47.8% | 13.3% | A (A is inhibition above 30%)
COc1cccc(NS(=O)(=O)c2ccc(-c3ccc(C)cc3)cc2)c1 [Compound A-34, N-(3-methoxyphenyl)-4′-methyl-[1,1′-biphenyl]-4-sulfonamide] | 28.3% | 70.5% | 100% | 37.3% | 77.8% | 100% | significant enhancement | 51.9% | 48.3% | 34.5% | 3.8% | A (A is inhibition above 30%)
O=S(=O)(Nc1ccc(-c2nncs2)cc1)c1ccc(-c2ccccc2)cc1 [Compound A-29, N-(4-(1,3,4-thiadiazol-2-yl)phenyl)-[1,1′-biphenyl]-4-sulfonamide] | 13.2% | 66.7% | 87.7% | 17.1% | 71.4% | 90% | significant enhancement | 67.0% | 59.5% | 60.1% | 18.7% | A (A is inhibition above 30%)
Cc1cccc(NS(=O)(=O)c2ccc(C(C)C)cc2)c1 [Compound A-59, 4-isopropyl-N-(m-tolyl)benzenesulfonamide] | 14.3% | 64.6% | 95% | 25.9% | 67.3% | 100% | significant enhancement | 95.0% | 50.0% | 30.9% | 15.6% | A (A is inhibition above 30%)
CCCc1ccc(S(=O)(=O)Nc2cccc(C)c2)cc1 [Compound A-62, 4-propyl-N-(m-tolyl)benzenesulfonamide] | 23.5% | 58.9% | 95.8% | 35.7% | 61% | 96% | significant enhancement | 71.7% | 21.7% | 38.8% | 1.4% | A (A is inhibition above 30%)
Cc1ccccc1NS(=O)(=O)c1ccc(-c2ccccc2)cc1 [Compound A-9, N-(o-tolyl)-[1,1′-biphenyl]-4-sulfonamide] |  |  |  |  |  |  |  | 65.5% | 54.9% | −13.9% | 12.4% | A (A is inhibition above 30%)
O=S(=O)(Nc1cccc(C(F)(F)F)c1)c1cnc(-c2ccccc2)nc1 [Compound A-37, 2-phenyl-N-(3-(trifluoromethyl)phenyl)pyrim-idine-5-sulfonamide] |  |  |  |  |  |  |  | 58.7% | 78.0% | 12.7% | −1.2% | B (B is inhibition from 20% to 30%)
Cc1ccc(C(=O)N(C)C)cc1NS(=O)(=O)c1ccc(-c2ccccc2)cc1 [Compound A-108, 3-([1,1′-biphenyl]-4-sulfonamido)-N,N,4-trimethylbenzamide] | 6.3% | 76.5% | 100% | 13.5% | 78.8% | 100% | significant enhancement | 92.1% | 31.7% | 40.5% | −1.2% | A (A is inhibition above 30%)
Cc1ccc(C)c(NS(=O)(=O)c2ccc(-c3ccccc3)cc2)c1 [Compound A-5, N-(2,5-dimethylphenyl)-[1,1′-biphenyl]-4-sulfonamide] |  |  |  |  |  |  |  | 89.2% | 13.0% | 24.3% | 15.1% | A (A is inhibition above 30%)
Cc1cccc(NS(=O)(=O)c2ccc(CCC(=O)O)cc2)c1 [Compound A-103, 3-(4-(N-(m-tolyl)sulfamoyl)phenyl) propanoic acid] | 5.1% | 54.7% | 91.5% | 30.6% | 43.1% | 98.4% | significant enhancement | 37.0% | 67.2% | 13.2% | 4.4% | B (B is inhibition from 20% to 30%)
Cc1ccnc(NS(=O)(=O)c2ccc(CC#N)cc2)n1 [Compound A-21, 4-(cyanomethyl)-N-(4-methylpyrimidin-2-yl)benzenesulfonamide] | 0% | 62.3% | 100% | 4.4% | 63% | 100% | significant enhancement | 48.5% | 39.0% | 47.7% | 1.2% | A (A is inhibition above 30%)
CN(c1ccccc1)S(=O)(=O)c1ccc(-c2ccccc2)cc1 [Compound A-10, N-methyl-N-phenyl-[1,1′-biphenyl]-4-sulfonamide] |  |  |  |  |  |  |  | 87.4% | 56.5% | 15.0% | 4.2% | A (A is inhibition above 30%)
